Holding throughout (type): biochemical
In one test the target is T1, SHV-5 β-lactamase (Klebsiella pneumoniae, UniProt P0A3M1).
T1 construct: made in house; host or cells: E. coli BL21(DE3)
The experiment in a line: β-Lactamase inhibition enzyme assay, SHV-5. Here is the method:
(§1) For SHV-5, Kpc-2, p99AmpC and OXA-1 β-lactamases, E. coli BL21(DE3) bacterial cells carrying expression plasmids (expressed as native untagged proteins) for the individual β-lactamases were grown in 1 L of Superbroth (Teknova Inc. Hollister, Calif.) supplemented with 100 μg/ml kanamycin selection and 1×5052 (0.5% glycerol, 0.05% glucose and 0.2% α-lactose) at 35° C. for 18-20 hours. Cells were harvested by centrifugation (4,000×g, 4° C., 20 min), resuspended in 50 ml of 10 mM HEPES pH 7.5 ( 1/20 of the initial volume). The cells were lysed by sonication (5 pulses of 45 seconds) at 45 W on ice. The lysates were clarified by centrifugation at 10,000×g for 40 minutes at 4° C. Samples were diluted 5-fold in 50 mM sodium acetate pH 5.0, stored overnight at 4° C., after which they were centrifuged at 10,000×g for 30 minutes to clarify, and filtered through 0.45 μm filters. The samples were loaded onto a 5 ml Capto S sepharose cation exchange column (GE Healthcare) pre-equilibrated with 50 mM sodium acetate pH 5.0. The column was washed with 5 column volumes of 50 mM sodium acetate pH 5.0 to wash out unbound protein and a linear gradient of NaCl (0 to 500 mM) was used to elute the protein (over 16 CV) from the column. Fractions were assayed for β-lactamase activity using Centa (Calbiochem, Gibbstown, N.J.) or Nitrocefin (EMD Millipore chemicals, Darmstadt, Germany) as a reporter β-lactamase substrate for activity in the isolated fractions. Active fractions were pooled, concentrated and further purified by gel filtration chromatography on a Superdex 75 prep grade gel filtration column (GE Healthcare, Piscataway, N.J.) pre-equilibrated in 50 mM Hepes pH 7.5, 150 mM NaCl. Active fractions were pooled concentrated, quantitated by BCA protein determination (Thermo Scientific, Rockford, Ill.), dialyzed into PBS and frozen at −80° C. in 20% glycerol until use.
(§2) An equal volume of diluted enzyme stock was added, and the plates were incubated at 37° C. for 15 min. Nitrocefin was used as substrate for p99 AmpC, VIM-2 and OXA-1 and dispensed into each well at a final concentration of 100 μM. Absorbance at 486 nm was immediately monitored for 10 min using a Biotek Powerwave XS2 microplate spectrophotometer using the GEN5 softweare package (Biotek Instruments, Winooski Vt.). In an analogous fashion, imipenem was used as substrate for Kpc-2 and Cefotaxime was used for SHV-5, while changes in absorbance upon hydrolysis of the β-lactam ring were monitored at 300 nm and 260 nm respectively in UV-transparent 96-well microtiter assay plates. Maximum rates of hydrolysis were compared to those in control wells (without inhibitors), and percentages of enzyme inhibition were calculated for each concentration of inhibitor. The concentration of inhibitor needed to reduce the initial rate of hydrolysis of substrate by 50% (IC50) was calculated as the residual activity of β-lactamase at 486 nm using GraFit version 7 kinetics software package (Erithacus Software, Surrey, UK).

The next test deals with T2, KPC-2 β-lactamase (Klebsiella pneumoniae, UniProt Q9F663).
T2 construct: made in house; host or cells: E. coli BL21(DE3)
Nature of the test: β-Lactamase inhibition enzyme assay, KPC-2. The note with it: imipenem as substrate, 300 nm; 15 min at 37° C. with enzyme, PBS pH 7.4; read-out: Class A KPC-2 IC50. Here is the method: as §1, §2

Test [1] concerns the target T3, VIM-2 metallo β-lactamase (Pseudomonas aeruginosa, UniProt Q9K2N0).
T3 construct: made in house; host or cells: E. coli BL21(DE3)
Nature of the test: β-Lactamase inhibition enzyme assay, VIM-2. The note with it: Nitrocefin 100 μM as substrate, 486 nm; 15 min at 37° C. with enzyme, PBS pH 7.4; read-out: Class B VIM-2 IC50. Here is the method:
as §1
For Vim-2 metallo β-lactamase, the procedure was identical with the following exceptions, first the protein was not pH adjusted to pH 5 with 50 mM sodium acetate, second, the chromatography step was changed to a 5 ml Q sepharose anion exchange column pre-equilibrated with 50 mM Hepes pH 7.5, and elution of the protein was achieved by a linear gradient of NaCl (0-600 mM). Finally, the VIM-2 purification required a second run (3rd step) on the Q sepharose anion exchange column to achieve acceptable purity (>90%).
as §2

In a further test the target is T4, p99 AmpC β-lactamase (Enterobacter cloacae, UniProt P05364).
T4 construct: made in house; host or cells: E. coli BL21(DE3)
The experiment in a line: β-Lactamase inhibition enzyme assay, p99 AmpC. Here is the method: as §1, §2

The target of another test is T5, OXA-1 β-lactamase (Escherichia coli, UniProt P13661).
T5 construct: made in house; host or cells: E. coli BL21(DE3)
The experiment in a line: β-Lactamase inhibition enzyme assay, OXA-1. The following applies: Nitrocefin 100 μM as substrate, 486 nm; 15 min at 37° C. with enzyme, PBS pH 7.4; read-out: Class D OXA-1 IC50. As for the experimental part:
as §1, §2

Molecules are shown by their SMILES.

What is called IC50 is the point on the concentration scale where inhibition reaches its midpoint.

T4 sequence (P05364 21-381): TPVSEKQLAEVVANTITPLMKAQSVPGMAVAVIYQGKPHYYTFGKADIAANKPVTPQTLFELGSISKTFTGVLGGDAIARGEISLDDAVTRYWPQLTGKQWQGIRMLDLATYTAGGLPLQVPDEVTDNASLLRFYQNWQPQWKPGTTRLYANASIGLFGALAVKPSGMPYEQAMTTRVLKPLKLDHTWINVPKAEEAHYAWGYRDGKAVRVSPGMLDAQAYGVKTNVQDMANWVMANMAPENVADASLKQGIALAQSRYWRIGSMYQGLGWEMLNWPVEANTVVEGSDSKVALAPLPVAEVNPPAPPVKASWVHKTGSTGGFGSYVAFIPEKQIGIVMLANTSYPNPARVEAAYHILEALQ
T2 sequence (Q9F663 25-293, looked up): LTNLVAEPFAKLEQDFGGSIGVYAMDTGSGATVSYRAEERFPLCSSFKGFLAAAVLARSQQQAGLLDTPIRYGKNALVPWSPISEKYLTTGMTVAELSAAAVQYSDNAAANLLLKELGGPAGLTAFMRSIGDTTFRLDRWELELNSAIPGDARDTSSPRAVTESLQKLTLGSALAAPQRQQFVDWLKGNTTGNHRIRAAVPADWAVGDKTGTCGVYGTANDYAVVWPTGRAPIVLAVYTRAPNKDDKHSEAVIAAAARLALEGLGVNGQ
T1 sequence (P0A3M1 22-286): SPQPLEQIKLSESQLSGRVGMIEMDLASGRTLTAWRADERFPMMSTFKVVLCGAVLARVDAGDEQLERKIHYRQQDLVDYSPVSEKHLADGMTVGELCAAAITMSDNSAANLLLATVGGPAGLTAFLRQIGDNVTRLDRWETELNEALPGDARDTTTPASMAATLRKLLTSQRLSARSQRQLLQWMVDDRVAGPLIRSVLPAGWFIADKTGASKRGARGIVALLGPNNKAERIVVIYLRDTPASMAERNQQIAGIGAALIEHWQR
T5 sequence (P13661 26-276): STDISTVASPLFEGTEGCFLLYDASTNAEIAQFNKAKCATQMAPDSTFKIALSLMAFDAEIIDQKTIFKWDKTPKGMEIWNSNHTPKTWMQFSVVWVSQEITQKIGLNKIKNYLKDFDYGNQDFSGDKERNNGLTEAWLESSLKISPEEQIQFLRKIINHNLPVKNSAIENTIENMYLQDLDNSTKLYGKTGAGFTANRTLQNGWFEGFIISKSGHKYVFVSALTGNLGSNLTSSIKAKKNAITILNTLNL

In the case of `O=C(Cc1cnc2c(c1)CCCN2)N[C@H]1Cc2cccc(C(=O)O)c2OB1O` [Example 13, (R)-2-hydroxy-3-(2-(5,6,7,8-tetrahydro-1,8-naphthyridin-3-yl)acetamido)-3,4-dihydro-2H-benzo[e][1,2]oxaborinine-8-carboxylic acid], the IC50 against SHV-5 β-lactamase was less than 100 nM; at KPC-2 β-lactamase, 100 to 1000 nM; in test [1], 1000 to 10000 nM; against p99 AmpC β-lactamase it was less than 100 nM; on OXA-1 β-lactamase, less than 100 nM.

As to `O=C(N[C@H]1Cc2cccc(C(=O)O)c2OB1O)c1ccc2nccnc2c1` [Example 29, (R)-2-hydroxy-3-(quinoxaline-6-carboxamido)-3,4-dihydro-2H-benzo[e][1,2]oxaborinine-8-carboxylic acid], the IC50 against SHV-5 β-lactamase was less than 100 nM; on KPC-2 β-lactamase it was less than 100 nM; in test [1] it was 1000 to 10000 nM; on p99 AmpC β-lactamase, less than 100 nM; at OXA-1 β-lactamase, less than 100 nM.

For `CN1CCc2c(C(=O)N[C@H]3Cc4cccc(C(=O)O)c4OB3O)csc2C1` [Example 6, (R)-2-hydroxy-3-(6-methyl-4,5,6,7-tetrahydrothieno[2,3-c]pyridine-3-carboxamido)-3,4-dihydro-2H-benzo[e][1,2]oxaborinine-8-carboxylic acid], the IC50 against SHV-5 β-lactamase is less than 100 nM; at KPC-2 β-lactamase it was less than 100 nM; in test [1], 1000 to 10000 nM; on p99 AmpC β-lactamase, less than 100 nM; at OXA-1 β-lactamase it was less than 100 nM.

As for `O=C(N[C@H]1Cc2cccc(C(=O)O)c2OB1O)c1ccc2nc[nH]c2c1` [Example 34, (R)-3-[(3H-Benzoimidazole-5-carbonyl)-amino]-2-hydroxy-3,4-dihydro-2H-benzo[e][1,2]oxaborinine-8-carboxylic acid], the IC50 against SHV-5 β-lactamase was less than 100 nM; on KPC-2 β-lactamase it was less than 100 nM; in test [1], 100 to 1000 nM; on p99 AmpC β-lactamase, less than 100 nM; at OXA-1 β-lactamase, less than 100 nM.

For the compound `NC1=NCc2ccc(C(=O)N[C@H]3Cc4cccc(C(=O)O)c4OB3O)cc2CN1` [Example 17, (R)-3-(3-amino-4,5-dihydro-1H-benzo[e][1,3]diazepine-7-carboxamido)-2-hydroxy-3,4-dihydro-2H-benzo[e][1,2]oxaborinine-8-carboxylic acid], the IC50 (against SHV-5 β-lactamase; on KPC-2 β-lactamase; in test [1]; on p99 AmpC β-lactamase; on OXA-1 β-lactamase) was less than 100 nM in each case.

Turning to `O=C(O)c1cccc2c1OB(O)[C@@H](NC(=O)C(F)(F)c1ccccc1)C2` [Example 2, (R)-3-(2,2-difluoro-2-phenylacetamido)-2-hydroxy-3,4-dihydro-2H-benzo[e][1,2]oxaborinine-8-carboxylic acid], the IC50 is less than 100 nM against SHV-5 β-lactamase; less than 100 nM on KPC-2 β-lactamase; 1000 to 10000 nM in test [1]; less than 100 nM at p99 AmpC β-lactamase; less than 100 nM at OXA-1 β-lactamase.

In the case of `CN1Cc2ccc(C(=O)N[C@H]3Cc4cccc(C(=O)O)c4OB3O)cc2C1` [Example 10, (R)-2-hydroxy-3-(2-methylisoindoline-5-carboxamido)-3,4-dihydro-2H-benzo[e][1,2]oxaborinine-8-carboxylic acid], the IC50 (on SHV-5 β-lactamase; at KPC-2 β-lactamase; in test [1]; at p99 AmpC β-lactamase; on OXA-1 β-lactamase) was less than 100 nM each time.

`Cc1ccc(C(=O)N[C@H]2Cc3cccc(C(=O)O)c3OB2O)cc1N` [Example 23, (R)-3-(3-amino-4-methylbenzamido)-2-hydroxy-3,4-dihydro-2H-benzo[e][1,2]oxaborinine-8-carboxylic acid]: the IC50 at SHV-5 β-lactamase was less than 100 nM; at KPC-2 β-lactamase, less than 100 nM; in test [1], 100 to 1000 nM; at p99 AmpC β-lactamase it was less than 100 nM; on OXA-1 β-lactamase it was less than 100 nM.

For `CC(C)NCc1cc(C(=O)N[C@H]2Cc3cccc(C(=O)O)c3OB2O)ccc1CN` [Example 55, (R)-3-(4-(aminomethyl)-3-((isopropylamino)methyl)benzamido)-2-hydroxy-3,4-dihydro-2H-benzo[e][1,2]oxaborinine-8-carboxylic acid], the IC50 against SHV-5 β-lactamase was in the range of 100 to 1000 nM; on KPC-2 β-lactamase it was 1000 to 10000 nM; in test [1], 100 to 1000 nM; at p99 AmpC β-lactamase, 100 to 1000 nM; on OXA-1 β-lactamase, 100 to 1000 nM.

For the compound `O=C(N[C@H]1Cc2cccc(C(=O)O)c2OB1O)c1cnc2c(c1)CNC2` [Example 50, (3R)-3-(6,7-dihydro-5H-pyrrolo[3,4-b]pyridine-3-carbonylamino)-2-hydroxy-3,4-dihydro-1,2-benzoxaborinine-8-carboxylic acid], the IC50 against SHV-5 β-lactamase is less than 100 nM; on KPC-2 β-lactamase, less than 100 nM; in test [1] it was 100 to 1000 nM; against p99 AmpC β-lactamase, less than 100 nM; at OXA-1 β-lactamase it was less than 100 nM.

Consider `O=C(N[C@H]1Cc2cccc(C(=O)O)c2OB1O)c1ccc2[nH]ccc2c1` [Example 26, (R)-2-hydroxy-3-(1H-indole-5-carboxamido)-3,4-dihydro-2H-benzo[e][1,2]oxaborinine-8-carboxylic acid], for which the IC50 on SHV-5 β-lactamase was less than 100 nM; at KPC-2 β-lactamase, less than 100 nM; in test [1], 100 to 1000 nM; on p99 AmpC β-lactamase, less than 100 nM; at OXA-1 β-lactamase it was less than 100 nM.

As for `NCc1cnc(C(=O)N[C@H]2Cc3cccc(C(=O)O)c3OB2O)cc1CN` [Example 63], the concentration for half-maximal inhibition (IC50) against SHV-5 β-lactamase was 100 to 1000 nM; on KPC-2 β-lactamase it was less than 100 nM; in test [1], less than 100 nM; against p99 AmpC β-lactamase, less than 100 nM; at OXA-1 β-lactamase, less than 100 nM.

As to `O=C(Cc1ccc(O)c(O)c1)N[C@H]1Cc2cccc(C(=O)O)c2OB1O` [Example 38, (R)-3-(2-(3,4-dihydroxyphenyl)acetamido)-2-hydroxy-3,4-dihydro-2H-benzo[e][1,2]oxaborinine-8-carboxylic acid], the IC50 against SHV-5 β-lactamase was less than 100 nM; at KPC-2 β-lactamase, less than 100 nM; in test [1], 100 to 1000 nM; on p99 AmpC β-lactamase, less than 100 nM; at OXA-1 β-lactamase, less than 100 nM.

As to `O=C(N[C@H]1Cc2cccc(C(=O)O)c2OB1O)c1ccc(-c2ccccn2)cc1` [Example 24, (R)-2-hydroxy-3-(4-(pyridin-2-yl)benzamido)-3,4-dihydro-2H-benzo[e][1,2]oxaborinine-8-carboxylic acid], the half-inhibitory concentration (IC50) against SHV-5 β-lactamase is less than 100 nM; at KPC-2 β-lactamase, less than 100 nM; in test [1], 100 to 1000 nM; against p99 AmpC β-lactamase, less than 100 nM; on OXA-1 β-lactamase, less than 100 nM.

As to `O=C(N[C@H]1Cc2cccc(C(=O)O)c2OB1O)c1cnc2[nH]ccc2c1` [Example 35, (R)-2-Hydroxy-3-[(1H-pyrrolo[2,3-b]pyridine-5-carbonyl)-amino]-3,4-dihydro-2H-benzo[e][1,2]oxaborinine-8-carboxylic acid], the IC50 against SHV-5 β-lactamase is less than 100 nM; at KPC-2 β-lactamase, less than 100 nM; in test [1] it was 100 to 1000 nM; against p99 AmpC β-lactamase, less than 100 nM; on OXA-1 β-lactamase, less than 100 nM.

For the compound `CC(C)NCc1ccc(C(=O)N[C@H]2Cc3cccc(C(=O)O)c3OB2O)cc1CNC(C)C` [Example 56, (R)-3-(3,4-bis((isopropylamino)methyl)benzamido)-2-hydroxy-3,4-dihydro-2H-benzo[e][1,2]oxaborinine-8-carboxylic acid], the IC50 was less than 100 nM at SHV-5 β-lactamase; less than 100 nM on KPC-2 β-lactamase; 100 to 1000 nM in test [1]; less than 100 nM on p99 AmpC β-lactamase; less than 100 nM on OXA-1 β-lactamase.

Values taken from patent publication US9376454B2, “Beta-lactamase inhibitors” (priority 2013, dated 2016).
